The text below walks through data of patent US8623898B2, “Glycine transporter inhibiting substances” (Taisho Pharmaceutical Co., Ltd., priority 2009, dated 2014).

In data set [1] the target is T1, human type 1 glycine transporter (GlyT1) (Homo sapiens, UniProt P48067).
T1 construct: Used in the experiment were T98G cells (glioma cells) developing a human type 1 glycine transporter (GlyT1); endogenous in cells; host or cells: T98G human glioma cells
T1 sequence (P48067 1-706): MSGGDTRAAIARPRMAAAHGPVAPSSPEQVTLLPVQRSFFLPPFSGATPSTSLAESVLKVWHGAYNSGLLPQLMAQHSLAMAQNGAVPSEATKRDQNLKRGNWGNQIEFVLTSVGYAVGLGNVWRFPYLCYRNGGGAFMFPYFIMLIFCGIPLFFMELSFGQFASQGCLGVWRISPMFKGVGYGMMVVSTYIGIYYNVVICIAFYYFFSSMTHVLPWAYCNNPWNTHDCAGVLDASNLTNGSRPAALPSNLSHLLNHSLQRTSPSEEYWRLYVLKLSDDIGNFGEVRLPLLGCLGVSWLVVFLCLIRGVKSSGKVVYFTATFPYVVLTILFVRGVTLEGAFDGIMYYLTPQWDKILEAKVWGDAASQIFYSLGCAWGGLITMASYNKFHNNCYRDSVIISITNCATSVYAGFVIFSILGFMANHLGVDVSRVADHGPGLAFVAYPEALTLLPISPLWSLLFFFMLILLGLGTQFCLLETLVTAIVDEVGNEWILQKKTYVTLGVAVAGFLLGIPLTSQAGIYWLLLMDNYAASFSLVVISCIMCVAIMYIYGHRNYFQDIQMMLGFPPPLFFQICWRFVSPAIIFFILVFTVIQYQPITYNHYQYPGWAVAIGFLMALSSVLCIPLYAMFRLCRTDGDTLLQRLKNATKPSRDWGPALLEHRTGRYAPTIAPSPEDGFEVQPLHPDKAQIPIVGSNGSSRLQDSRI
Briefly: Glycine uptake inhibition experiment ([3H] glycine uptake in T98G cells). It counts as cell-based. Conditions: [3H] glycine 250 nM, read-out: IC50 (glycine uptake inhibiting activity). The protocol:
A glycine uptake inhibition experiment was conducted in accordance with the method described in Neuron, 8, 927-935, 1992. Used in the experiment were T98G cells (glioma cells) developing a human type 1 glycine transporter (GlyT1). The T98G cells were seeded in a 96-well plate at a density of 2.0×10^4 cells per well and cultured overnight in a CO2 incubator. The test substance was first dissolved in a 100% DMSO solution and then dissolved in a 10 mM HEPES buffer solution (pH 7.4) supplemented with 150 mM sodium chloride, 1 mM calcium chloride, 5 mM potassium chloride, 1 mM magnesium chloride, 10 mM glucose, and 0.2% bovine serum albumin. After removing the cell culture medium, the test substance was subjected to a 10-min pretreatment. Thereafter, the test substance and [^3H] glycine (final concentration: 250 nM) were added to the cells and reaction was performed at room temperature for 15 minutes. After the end of the reaction, the extracellular fluid was aspirated with a manifold to remove the excess marker glycine present outside of the cells; thereafter, the cells were lysed with an aqueous solution of 0.5 M sodium hydroxide. The glycine content in the cells was determined by measuring the radioactivity in the cell lysate with a liquid scintillation counter. With the amount of glycine uptake in the presence of 10 μM ALX5407 being referred to as the nonspecific uptake, the amount of specific uptake was calculated by subtracting the amount of nonspecific uptake from the total amount of uptake in the absence of 10 μM ALX5407. In addition, glycine uptake inhibiting activity (IC50) was calculated from an inhibition curve for the concentration of the test substance ranging from 10^−9 to 10^−5 M.

The next data set addresses T2, P-gp (Human MDR1) (Homo sapiens, UniProt P08183).
T2 construct: expressed in transfected cells; host or cells: LLC-GA5-COL 300 (LLC-PK1 pig kidney epithelial cells expressing human MDR1)
Briefly: Test for recognizability of P-gp substrate (LLC-GA5-COL 300 cells). The format is in vitro ADME. Particulars: 10 μM, criteria of Nature Reviews Drug Discovery (2010) 9, 215-236. An excerpt:
In order that drugs acting on the central nervous system will develop their efficacy, their passage from the blood to the brain is generally important. While various efflux transporters are present at the blood-brain barrier to control this passage of drugs, P-glylcoprotein (P-gp) is a typical example and inhibits the passage to the brain of any drugs that serve as the substrate for P-gp. Therefore, in the development of pharmaceuticals, nonrecognizability of a candidate drug as the substrate for P-gp is the key to its passage to the brain.
A test for recognizability of P-gp substrate was performed in accordance with a modified version of the methods described in J. Pharmacol. Exp. Ther. (1992) Vol. 263, No. 2, 840-845 and J. Biol. Chem. (1992) Vol. 267, No. 34, 24248-24252. […] A solution of an assay compound (a DMSO solution of the compound as diluted with HBSS and adjusted to a final concentration of 10 μM) was added to the donor side of the LLC-GA5-COL 300 cells and a prescribed amount of HBSS was collected from the acceptor side at given time intervals and the concentration of the assay compound in the collected sample was measured by LC-MS/MS. […]

Data set [2] is described as follows: Membrane permeability experiment (PAMPA Evolution). Particulars: artificial lipid GIT-0, pH 4.0, 5.0, 6.2 and 7.4, marker metoprolol. It counts as in vitro ADME. The protocol:
In the development of pharmaceuticals, membrane permeability is an important factor to consider from the viewpoint of relationship with the bodily absorption of a medicament to be administered orally. Compounds having high membrane permeability are expected to feature satisfactory absorption by the intestinal tract (see Pharmaceutical Research (2002) Vol. 19, No. 7, 921-925.)
A membrane permeability test was conducted using PAMPA Evolution™ (pION INC.) in accordance with a modified version of the recommended protocol of pION INC. To be more specific, solutions of an assay compound (i.e., a DMSO solution of the compound as diluted by being added to system solutions that had been adjusted to prescribed pHs (4.0, 5.0, 6.2, and 7.4)) were prepared and added to the lower compartment (donor) of a sandwich plate having a lipid bilayer membrane formed of an artificial lipid (GIT-0). An acceptor sink buffer was added to the upper compartment (acceptor) and after the lapse of a prescribed period, the cumulative permeation of the compound was measured by performing UV spectroscopy on the solutions in the donor and acceptor, and the membrane permeability coefficient Pe (×10^−6 cm/sec) was calculated to assay the membrane permeability of the compound.

Like-named read-outs stand apart in the source and are kept apart here.

T2 sequence (P08183 whole entry): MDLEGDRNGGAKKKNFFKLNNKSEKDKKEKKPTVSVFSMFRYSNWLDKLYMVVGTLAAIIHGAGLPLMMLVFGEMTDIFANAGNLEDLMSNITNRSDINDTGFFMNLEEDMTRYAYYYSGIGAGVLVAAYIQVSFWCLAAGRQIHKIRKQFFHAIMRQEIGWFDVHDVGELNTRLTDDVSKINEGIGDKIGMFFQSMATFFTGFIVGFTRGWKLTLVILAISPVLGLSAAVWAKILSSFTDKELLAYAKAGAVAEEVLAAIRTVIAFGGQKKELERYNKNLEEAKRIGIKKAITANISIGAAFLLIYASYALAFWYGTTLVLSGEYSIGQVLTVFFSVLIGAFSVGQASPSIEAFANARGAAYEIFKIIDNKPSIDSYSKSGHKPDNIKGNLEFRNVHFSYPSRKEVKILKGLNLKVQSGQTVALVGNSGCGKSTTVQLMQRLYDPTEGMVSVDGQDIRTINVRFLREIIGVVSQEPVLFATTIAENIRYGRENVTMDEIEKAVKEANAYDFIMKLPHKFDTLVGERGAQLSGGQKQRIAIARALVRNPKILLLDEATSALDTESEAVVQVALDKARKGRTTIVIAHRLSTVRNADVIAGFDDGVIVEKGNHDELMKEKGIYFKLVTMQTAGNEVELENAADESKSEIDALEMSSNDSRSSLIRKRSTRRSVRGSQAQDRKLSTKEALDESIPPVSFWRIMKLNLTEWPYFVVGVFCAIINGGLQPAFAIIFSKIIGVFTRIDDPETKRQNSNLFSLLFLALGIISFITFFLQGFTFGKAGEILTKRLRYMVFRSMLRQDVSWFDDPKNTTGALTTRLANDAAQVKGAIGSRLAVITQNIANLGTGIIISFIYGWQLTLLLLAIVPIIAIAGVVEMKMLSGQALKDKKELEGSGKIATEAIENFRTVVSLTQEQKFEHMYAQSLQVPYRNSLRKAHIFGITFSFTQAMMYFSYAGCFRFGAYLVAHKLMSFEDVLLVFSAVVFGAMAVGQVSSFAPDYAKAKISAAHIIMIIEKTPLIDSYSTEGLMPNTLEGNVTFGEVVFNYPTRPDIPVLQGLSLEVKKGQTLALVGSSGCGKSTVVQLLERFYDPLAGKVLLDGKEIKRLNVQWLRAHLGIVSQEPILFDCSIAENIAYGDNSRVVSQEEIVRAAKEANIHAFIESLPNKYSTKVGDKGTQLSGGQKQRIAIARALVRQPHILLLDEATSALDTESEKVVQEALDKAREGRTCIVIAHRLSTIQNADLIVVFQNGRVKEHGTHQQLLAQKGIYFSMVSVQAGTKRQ

Consider `Cn1cnc(C(=O)N(Cc2ccc(F)c(OC(F)(F)F)c2)C2CCOCC2)n1` [Compound 49], for which the IC50 in data set [1] (15 min, room temperature) is 7.4 nM; in data set [1], less than 100 nM. For the same compound, the “recognizability as P-gp substrate (efflux ratio basal→apical / apical→basal)” value at P-gp (Human MDR1) was “not recognizable as the substrate for P-gp”.

With `Cn1cnc(C(=O)N(Cc2ccc(F)c(-c3ccc(F)c(Cl)c3)c2)C2CCOCC2)n1` [Compound 86], the “membrane permeability coefficient Pe compared with metoprolol” value in data set [2] is on record as “higher Pe values than the high permeability marker compound metoprolol”. In addition, the IC50 in data set [1] (15 min, room temperature) was 21.4 nM; in data set [1] it was less than 100 nM.

Turning to `Cn1cnc(C(=O)N(Cc2ccc(F)c(-c3cccc(OC(F)(F)F)c3)c2)C2CCOCC2)n1` [Compound 87], the “membrane permeability coefficient Pe compared with metoprolol” value in data set [2] is on record as “higher Pe values than the high permeability marker compound metoprolol”. Besides, the IC50 in data set [1] (15 min, room temperature) is 5.4 nM; in data set [1] it was less than 100 nM.

Consider `Cn1cnc(C(=O)N(Cc2ccc(F)c(-c3ccc(OC(F)(F)F)cc3)c2)C2CCOCC2)n1` [Compound 89], for which the “membrane permeability coefficient Pe compared with metoprolol” value in data set [2] was “higher Pe values than the high permeability marker compound metoprolol”. For the same compound, the IC50 is 22.4 nM in data set [1] (15 min, room temperature) and less than 100 nM in data set [1].

Turning to `CCOc1cccc(-c2cc(CN(C(=O)c3ncn(C)n3)C3CCOCC3)ccc2F)c1` [Compound 91], the “membrane permeability coefficient Pe compared with metoprolol” value in data set [2] is given as “higher Pe values than the high permeability marker compound metoprolol”. Besides, the IC50 in data set [1] (15 min, room temperature) was 28.9 nM; in data set [1] it was less than 100 nM.

Turning to `Cn1cnc(C(=O)N(Cc2ccc(F)c(-c3cccc(C(F)(F)F)c3)c2)C2CCOCC2)n1` [Compound 95], the “membrane permeability coefficient Pe compared with metoprolol” value in data set [2] is listed as “higher Pe values than the high permeability marker compound metoprolol”. Moreover, the IC50 is 18.1 nM in data set [1] (15 min, room temperature) and less than 100 nM in data set [1].

For the compound `Cn1cnc(C(=O)N(Cc2ccc(F)c(-c3cccc(Oc4ccccc4)c3)c2)C2CCOCC2)n1` [Compound 96], the “membrane permeability coefficient Pe compared with metoprolol” value in data set [2] is listed as “higher Pe values than the high permeability marker compound metoprolol”. For the same compound, the IC50 in data set [1] is less than 100 nM.

For the compound `Cn1cnc(C(=O)N(Cc2ccc(F)c(-c3cccc(CCO)c3)c2)C2CCOCC2)c1` [Compound 99], in data set [2], the “membrane permeability coefficient Pe compared with metoprolol” value is “higher Pe values than the high permeability marker compound metoprolol”. For the same compound, the IC50 is 9 nM in data set [1] (15 min, room temperature) and less than 100 nM in data set [1].

Turning to `Cn1cnc(C(=O)N(Cc2ccc(F)c(-c3ccc(OC(F)(F)F)cc3)c2)C2CCOCC2)c1` [Compound 100], the “membrane permeability coefficient Pe compared with metoprolol” value in data set [2] is “higher Pe values than the high permeability marker compound metoprolol”. Moreover, the IC50 in data set [1] (15 min, room temperature) was 6 nM; in data set [1], less than 100 nM.

Consider `Cn1cnc(C(=O)N(Cc2ccc(F)c(-c3ccc(F)cc3)c2)C2CCOCC2)c1` [Compound 103], for which the “membrane permeability coefficient Pe compared with metoprolol” value in data set [2] was “higher Pe values than the high permeability marker compound metoprolol”. Further, the IC50 in data set [1] (15 min, room temperature) is 8.2 nM; in data set [1] it was less than 100 nM.

On to `Cn1cnc(C(=O)N(C2CCOCC2)C(CO)Cc2cccc(OC(F)(F)F)c2)c1` (centres unmarked) [Compound 109], for which the “membrane permeability coefficient Pe compared with metoprolol” value in data set [2] was “higher Pe values than the high permeability marker compound metoprolol”. The IC50 was 31.7 nM in data set [1] (15 min, room temperature) and less than 100 nM in data set [1].
